{"source": "paper PMC3253112", "about": "“Functional Evolution of Duplicated Odorant-Binding Protein Genes, Obp57d and Obp57e, in Drosophila” (PLoS ONE, 2012)", "assay_in_all_cases": "intrinsic tryptophan fluorescence quenching", "format_in_all_cases": "binding", "settings_in_all_cases": "20 mM sodium acetate pH 5.0, 25 °C, 1 µM OBP; Q = ligand concentration at which 3% of OBP is bound", "key": {"Dmel\\OBP57e": {"target": "T1, Dmel\\OBP57e (Drosophila melanogaster, UniProt Q9V938)", "T1 construct": "mature protein, signal peptide removed, untagged; cloning primer encodes NTSVFNP", "T1 sequence (Q9V938 21-136)": "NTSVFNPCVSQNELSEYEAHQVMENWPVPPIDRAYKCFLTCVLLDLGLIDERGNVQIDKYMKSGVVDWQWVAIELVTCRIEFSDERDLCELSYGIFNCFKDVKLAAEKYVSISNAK"}, "Dpse\\OBP57de": {"target": "T2, Dpse\\OBP57de (Drosophila pseudoobscura, UniProt A0A6I8UUP3)", "T2 construct": "gene LOC4804642; mature protein, signal peptide removed, untagged, Met added; primer encodes N-terminus HSNTAIFN", "T2 sequence (A0A6I8UUP3 20-133)": "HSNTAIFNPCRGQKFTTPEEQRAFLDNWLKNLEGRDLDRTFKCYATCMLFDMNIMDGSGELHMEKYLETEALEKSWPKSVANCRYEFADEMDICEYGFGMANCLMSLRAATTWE"}, "Dmel\\OBP57d [1]": {"target": "T3, Dmel\\OBP57d (Drosophila melanogaster, UniProt Q8MMF9)", "T3 construct": "mature protein, signal peptide removed, untagged, Met added; primer encodes N-terminus NDPCPHNQGID, C-terminus LTKS", "T3 sequence (Q8MMF9 30-136)": "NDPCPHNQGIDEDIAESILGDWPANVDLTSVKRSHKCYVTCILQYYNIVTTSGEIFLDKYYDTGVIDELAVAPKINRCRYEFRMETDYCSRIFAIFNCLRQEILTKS"}, "Dmel\\OBP57d [2]": {"target": "T4, Dmel\\OBP57d (Drosophila melanogaster, UniProt Q8MMF9, L133A)", "T4 construct": "mature protein, signal peptide removed, untagged, Met added; primer encodes N-terminus NDPCPHNQGID, C-terminus LTKS", "T4 sequence (Q8MMF9 30-136 L133A)": "T3 sequence (Q8MMF9 30-136) with L104A"}, "Dmel\\OBP57d [3]": {"target": "T5, Dmel\\OBP57d (Drosophila melanogaster, UniProt Q8MMF9, P52A)", "T5 construct": "mature protein, signal peptide removed, untagged, Met added; primer encodes N-terminus NDPCPHNQGID, C-terminus LTKS", "T5 sequence (Q8MMF9 30-136 P52A)": "T3 sequence (Q8MMF9 30-136) with P23A"}, "Dmel\\OBP57d [4]": {"target": "T6, Dmel\\OBP57d (Drosophila melanogaster, UniProt Q8MMF9, Y89A)", "T6 construct": "mature protein, signal peptide removed, untagged, Met added; primer encodes N-terminus NDPCPHNQGID, C-terminus LTKS", "T6 sequence (Q8MMF9 30-136 Y89A)": "T3 sequence (Q8MMF9 30-136) with Y60A"}, "Dmel\\OBP57d [5]": {"target": "T7, Dmel\\OBP57d (Drosophila melanogaster, UniProt Q8MMF9, C33A)", "T7 construct": "mature protein, signal peptide removed, untagged, Met added; primer encodes N-terminus NDPCPHNQGID, C-terminus LTKS", "T7 sequence (Q8MMF9 30-136 C33A)": "T3 sequence (Q8MMF9 30-136) with C4A"}, "Dmel\\OBP57d [6]": {"target": "T8, Dmel\\OBP57d (Drosophila melanogaster, UniProt Q8MMF9, DEL101-101)", "T8 construct": "mature protein, signal peptide removed, untagged, Met added; primer encodes N-terminus NDPCPHNQGID, C-terminus LTKS", "T8 sequence (Q8MMF9 with tags, fused parts or gaps DEL101-101)": "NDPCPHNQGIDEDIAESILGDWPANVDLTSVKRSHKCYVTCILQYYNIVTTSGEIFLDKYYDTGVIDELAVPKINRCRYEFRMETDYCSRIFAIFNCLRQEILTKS"}, "Dmel\\OBP57d [7]": {"target": "T9, Dmel\\OBP57d (Drosophila melanogaster, UniProt Q8MMF9, D96A)", "T9 construct": "mature protein, signal peptide removed, untagged, Met added; primer encodes N-terminus NDPCPHNQGID, C-terminus LTKS", "T9 sequence (Q8MMF9 30-136 D96A)": "T3 sequence (Q8MMF9 30-136) with D67A"}}, "note": "Numbering of substitutions follows the chain as printed."}
{"smiles": "CCCCCCCCCC(=O)O", "note": "[C10, decanoic acid]", "values": [{"measurement": "Q (quenching value)", "setting": "Dmel\\OBP57e", "value": "particularly obvious in the affinity to C10–C13 fatty acids and 1-tridecanol"}]}
{"smiles": "CCCCCCCCCCC(=O)O", "note": "[C11, C11 fatty acid]", "values": [{"measurement": "Q (quenching value)", "setting": "Dmel\\OBP57e", "value": "particularly obvious in the affinity to C10–C13 fatty acids and 1-tridecanol"}]}
{"smiles": "CCCCCCCCCCCC(=O)O", "note": "[C12, C12 fatty acid]", "values": [{"measurement": "Q (quenching value)", "setting": "Dmel\\OBP57e", "value": "particularly obvious in the affinity to C10–C13 fatty acids and 1-tridecanol"}, {"measurement": "Q (quenching value)", "setting": "Dpse\\OBP57de", "value": "The binding affinity of Dmel\\OBP57e and Dpse\\OBP57de to the same set of compounds was examined"}]}
{"smiles": "CCCCCCCCCCCCC(=O)O", "note": "[C13, tridecanoic acid]", "values": [{"measurement": "Q (quenching value)", "setting": "Dmel\\OBP57e", "value": "Dmel\\OBP57e also showed higher affinity than Dpse\\OBP57de, not only to tridecanoic acid"}, {"measurement": "Q (quenching value)", "setting": "Dmel\\OBP57d [1]", "value": "the strongest interaction was observed with the longer chain fatty acid (tridecanoic acid: C13)"}, {"measurement": "Q (quenching value)", "setting": "Dmel\\OBP57d [2]", "value": "none showed a complete loss of interaction with ligands"}, {"measurement": "Q (quenching value)", "setting": "Dmel\\OBP57d [3]", "value": "none showed a complete loss of interaction with ligands"}, {"measurement": "Q (quenching value)", "setting": "Dmel\\OBP57d [4]", "value": "none showed a complete loss of interaction with ligands"}, {"measurement": "Q (quenching value)", "setting": "Dmel\\OBP57d [5]", "value": "none showed a complete loss of interaction with ligands"}, {"measurement": "Q (quenching value)", "setting": "Dmel\\OBP57d [6]", "value": "none showed a complete loss of interaction with ligands"}, {"measurement": "Q (quenching value)", "setting": "Dmel\\OBP57d [7]", "value": "none showed a complete loss of interaction with ligands"}]}
